From patent US6372897B1, “Mimotopic polypeptides of toxoplasma gondii and applications” (priority 1995, dated 2002)
Ends that are not written are not given here.

B1: P30 protein: the Toxoplasma gondii major antigen, peptide sequence identified by SEQ ID No.1 (protein)
chain: MSVSLHHFIISSGFLTSMFPKAVRRAVTAGVFAAPTLMSFLRCGVMASDPPLVANQVVTCPDKKSTAAVILTPTENHFTLKCPKTALTEPPTLAYSPNRQICPAGTTSSCTSKAVTLSSLIPEAEDSWWTGDSASLDTAGIKLTVPIEKFPVTTQTFVVGCIKGDDAQSCMVTVTVQARASSVVNNVARCSYGADSTLGPVKLSAEGPTTMTLVCGKDGVKVPQDNNQYCSGTTLTGCNEKSFKDILPKLTENPWQGNASSDKGATLTINKEAFPAESKSVIIGCTGGSPEKHHCTVKLEFAGAAGSAKSSAGTASHVSIFAMVTGLIGSIAACVA

Legend:
[1] = system: anti-P30 monoclonal antibody 1E1E7; experiment: Spotscan overlapping pentadecapeptides on cellulose membrane, immunoreactivity with 1E1E7; assay type: binding, mouse; details: 1E1E7 60 nM
Procedure: According to the “Spotscan” technique, the synthesis of the peptides is carried out on cellulose membranes (Cambridge Research Biochemicals). The principle of the method is the same as that for Pepscan. The esterified amino acids are solubilized in N-methylpyrrolidone (NMP) at the concentration of […] and 0.9 μl are deposited at the level of spots for the deposition of bromophenol blue. After a 15 minute incubation, another deposition of amino acids is carried out followed by another 15 minute incubation. If the coupling between the two amino acids is carried out correctly, a change in color is observed (passage from blue to yellowish green). After three washes in DMF, an acetylation step is carried out with acetic anhydride. Then the terminal amino groups of the peptides being synthesized are deprotected with 20% piperidine in DMF. The deposition spots are restained with a 1% bromophenol blue solution in DMF, washed three times with methanol and dried. These operations as a whole constitute a cycle for addition of an amino acid and this cycle is repeated up to the end of the synthesis. When all the amino acids have been added, the NH2-terminal group of the last amino acid is deprotected with 20% piperidine in DMF and is acetylated with acetic anhydride. The side chain protecting groups are removed by a dichloromethane:trifluoroacetic acid:triisobutylsilane mixture (5 ml:5 ml:250 μl). The immunoreactivity of the peptides thus synthesized can then be tested by ELISA.
In order to reproduce the entire pentadecapeptide included in the phage clone isolated and to determine the possible role of the contiguous amino acids belonging to the sequence of the PIII protein of the phage (see Example 1), the chemical synthesis of overlapping pentadecapeptides, which cover the sequence […](SEQ ID No.59), was carried out on an activated cellulose membrane (“Spotscan”).
After synthesis of the various pentadecapeptides, the membrane is rinsed with methanol, washed in TBS (0.1M Tris, pH 7.2) and then incubated overnight at room temperature in saturation buffer (marketed by Cambridge Research Biochemicals). After several washes with TBS-T (0.1M Tris, pH 7.2-0.05% Tween 20), the membrane is brought into contact with a solution of anti-P30 monoclonal antibody 1E1E7 (60 nM) and incubated for 4 hours at room temperature. After three washes with TBS-T, the anti-mouse immunoglobulin conjugate labeled with galactosidase (marketed by Cambridge Research Biochemicals) is added at a 1/200 dilution and the whole is incubated for two hours at room temperature. After several washes of the membrane with PBS-Tween 0.05% and PBS, the immunoreactivity at the level of the various spots is visualized by adding a solution of substrate (5-bromo-4-chloro-3-indoyl-D-galactopyranoside in PBS containing magnesium chloride and potassium ferricyanide) and incubating for 10 to 40 minutes. The color of the spots is assessed qualitatively.

[2] = target: T1, phage clone identified (SEQ ID No.48) (Enterobacteria phage fd, UniProt P03661); experiment: ELISA: inhibition by human serum of the attachment of monoclonal antibody 1E1E7 to the phage clone; assay type: binding; details: phages containing the sequence
T1 construct: made in house; host or cells: E. coli (K19Kan), phage amplification
Procedure: The ELISA test was carried out as described in Example 2 with the following modifications: 100 μl of various dilutions of human serum of a patient infected with Toxoplasma gondii (positive serum—reference G8) are brought into contact with the. phage clone identified, immobilized as described in Example 2, for 30 minutes at 37° C. After two washes with TBS/Tween 0.05%, 100 μl of monoclonal antibody 1E1E7 at the concentration of 6 nM are added and incubated overnight at 4° C. After four washes with TBS/Tween, 100 μl of anti-mouse conjugate labeled with peroxidase are added and then incubated for one hour at 37° C. The enzymatic reaction for visualization was carried out by adding 100 μl of an H2O2/orthophenylenediamine (OPD) solution and incubating the sample for 30 minutes at room temperature. The staining reaction is stopped by adding 50 μl of 1.8N sulfuric acid. The optical density is measured on a BioMé rieux plate reader at 492 nm. Moreover, a control was produced, under the same reaction conditions but with a human serum not infected with Toxoplasma gondii (negative serum), in order to ensure that the phage clone identified reacts specifically with the human serum of a patient infected with Toxoplasma gondii.

[3] = target: phage clone displaying the pentadecapeptide Trp-His-Trp-Arg-His-Arg-Ile-Pro-Leu-Gln-Leu-Ala-Ala-Gly-Arg (SEQ ID No.48) fused in the PIII protein (filamentous phage); experiment: phage ELISA, phages captured by anti-M13 antibodies, 1E1E7 at 3 nM
[4] = system: anti-P30 monoclonal antibody 1E1E7; experiment: Competition ELISA: inhibition by native P30 protein of the ELISA response of the phage clone; assay type: binding, mouse; details: phage clone SEQ ID No.48
Procedure: A competition ELISA test was carried out in order to determine if the response obtained with the phage clone identified is inhibited by pre-incubation of the anti-P30 monoclonal antibody 1E1E7 with the P30 protein.
The ELISA test is carried out as described in Example 2 with the following modifications: the monoclonal antibody 1E1E7 (at the concentration of 6 nM) is preincubated with various concentrations of P30 protein for 20 minutes at 37° C. and then the mixture is added to the wells of the ELISA plate in which the phages corresponding to the pentadecapeptide Trp-His-Trp-Arg-His-Arg-Ile-Pro-Leu-Gln-Leu-Ala-Ala-Gly-Arg (SEQ ID No.48) are attached.

Molecule | Color of the spots (immunoreactivity), assessed qualitatively [1] | also measured
HRIPLQLAAGRGAAG [SEQ ID No.9] | maximum | –
SADGAWHWRHRIPLQ [SEQ ID No.231] | a first color | –
IPLQLAAGRGAAGAE [SEQ ID No.33] | very slight color | –
PLQLAAGRGAAGAET [SEQ ID No.34] | disappears completely | –
WHWRHRIPLQLAAGR [SEQ ID No.48] | – | Recognition by the antibodies present in the sera of patients infected with Toxoplasma gondii [2]: indeed recognized
anti-P30 monoclonal antibody 1E1E7 (BioMerieux) | – | OD (492 nm) [3]: 0.269 to 0.274 OD 492 nm
RIPLQLAAGRGAAGA [SEQ ID No.32] | maximum | –
B1 | – | Inhibition of the ELISA response ([4]; P30 protein 35 ng/ml preincubated with 6 nM 1E1E7): 45%; Inhibition of the ELISA response ([4]; P30 protein 3.5 μg/ml preincubated with 6 nM 1E1E7): 80%
